From patent US8822535B2 (priority 2005, dated 2014)
Several values for one entry are separate records, joined by “and”; a condition that tells them apart may be missing. Equal values may be shown once. Read-outs that look alike come from different tables or passages of the source.

How the values were obtained:
[1] = system: mice; parameters: species or system mouse (C57BL/6); conditions: mouse, in vivo; for survival in lethal hypoxia: sc
[2] = system: mice; conditions: mouse, in vivo; for effective dose (to lower subcutaneous temperature) / effect on body (subcutaneous) temperature: sc
[3] = system: rats; assay: Gas matrix: metabolic flexibility in altered gas environments, rats; type: in vivo, rat; conditions: ambient 7 to 10° C., 6-hour treatment
Description: (§1) Metabolic flexibility was evaluated in mice rats and dogs using altered gas environments. Three parameters were used to define this reduction in metabolism including changes in carbon dioxide production, oxygen consumption measured by respirometry, and core temperature as measured using telemetry. In experiments with mice and rats the animals were placed into sealed chambers with one gas import and one gas export. For dogs a mask was placed over the snout of the animal with two hoses (import and export) attached to the mask. The flow rate of gas for each of the animals mice—500 cc per minute, rats—2 liters per minute, and dogs 40 liters per minute. Each atmosphere was constructed from compressed gas by dilution into room air unless otherwise noted. For rat and mouse experiments the ambient temperature was 7 to 10° C. during exposure to the test gases. For dogs ambient temperature was room temperature (22° C.).
(§2) Evidence of depression in metabolic rate of greater than 5-fold as judged by carbon dioxide production or oxygen consumption during a 6-hour treatment is described by “Yes”; […]; “N/D” denotes experiments not done. The temperature drop in the dog experiment (Carbon dioxide+low oxygen+Helium) was approximately 1.5° C. over the course of 30 minutes of exposure. This drop in temperature was considered significant because the dog was 12 kg and no such temperature drop was seen during extensive baseline recording of the animal in room air.

[4] = previously reported in the literature; cited from earlier work
[5] = system: mice; assay: Gas matrix: metabolic flexibility in altered gas environments, mice; type: in vivo, mouse; conditions: for depression in metabolic rate, Mouse: ambient 7 to 10° C., 6-hour treatment
Description: as §1, §2

[6] = system: mice; type: in vivo, mouse
[7] = system: dogs; assay: Gas matrix: metabolic flexibility in altered gas environments, dogs; type: in vivo, dog; conditions: 9%
Description: as §1, §2

[8] = system: Drosophila melanogaster; assay: Anoxia tolerance of Drosophila melanogaster after CO2 / H2S treatment; type: in vivo; conditions: adult flies
Description: Adult flies were introduced into 35 mL tubes made of glass with a gas-tight rubber stopper (Balsh tubes). This was usually accomplished by anesthetizing flies with CO2, moving groups of flies to vials with food to recover for at least 2 hours, and then transferring them into the Balsh tube. To exchange the gaseous environment in the Balsh tube, two 18 gauge needles were inserted into the rubber stopper, and gas is blown into one of the needles at 100 mL/min. To prevent dessication, gasses were humidified by bubbling through 10 mL of water before passing it through the Balsch tube. The water in the bubbler is equilibrated with the gas for at least 20 minutes before starting the experiment.
For “stopped-flow” experiments, gas exchange proceeded for 60 minutes before sealing the tube. For “low-flow” experiments, gas flow continued throughout the experiment. CO2 was from the house source (100%), and anoxic environments were established by flushing out room air with 100% nitrogen (N2). Care was taken to prevent introduction of room air into the system while switching the atmosphere from CO2 to N2.
After anoxic treatment, oxygen was reintroduced into the Balsh tube by flushing with house air for 20 minutes. The rubber stopper was then removed and a food vial is inverted over the top of the Balsh tubes with Parafilm. […] Viability was scored at least 18 hours after the end of anoxic treatment. After two weeks, if the food vials contained larvae and/or pupae the flies were considered to be fertile.

[9] = system: Drosophila melanogaster; assay: as above; type: in vivo
[10] = system: human foreskin keratinocytes; type: cell-based
[11] = system: nematodes (C. elegans); assay: Nematode lethal hypothermia screening assay; type: in vivo; conditions: carbon monoxide atmosphere at room temperature prior to 4 degrees C. for 16 hrs
Source text: A screening assay was established using nematodes (C. elegans). […] Worms were exposed for X minutes at room temperature to an atmosphere containing Y % carbon monoxide, prior to exposing them to 4 degrees C. for 16 hrs. […] Since carbon monoxide is a known stasis inducer in nematodes and neonatal human foreskin keratinocytes, the nematode assay is capable of identifying stasis inducing compounds as such by their ability to increase the survivability of worms exposed to lethal hypothermia when the worms are pre-equilibrated in the stasis inducer or other active compound.

[12] = system: C. elegans embryos
[13] = cited from earlier work
[14] = 100 ppb H2Se, less than 10 minutes (FIG. 26)

NCCS [cysteamine]
survival in lethal hypoxia [1]: 45 min | effective dose (to lower subcutaneous temperature) [2]: 7.58 mmol/kg

CS(=O)[O-].[Na+] [sodium methane sulfinate]
effect on body (subcutaneous) temperature [2]: did not reduce subcutaneous temperature

SCCOCCS [2-mercaptoethyl ether]
toxicity [2]: toxic at the effective temperature reducing dose | effect on body (subcutaneous) temperature [2]: reduced body temperature

[SeH2] [H2Se, hydrogen selenide]
depression in metabolic rate, Rat ([3]; 0.003% in room air): Yes 0.003% (Evidence of depression in metabolic rate of greater than 5-fold as judged by carbon dioxide production or oxygen consumption during a 6-hour treatment is described by “Yes”) | concentration lethal to animals [4]: greater than 1 ppm | depression in metabolic rate, Mouse ([5]; 0.0001% in room air): Yes 0.0001% (Evidence of depression in metabolic rate of greater than 5-fold as judged by carbon dioxide production or oxygen consumption during a 6-hour treatment is described by “Yes”) | core body temperature (CBT) ([5]; mouse, 1.2 ppm of H2Se, 2 hours and 10 minutes, 5° C. ambient (FIG. 34)): significant drop in CBT | core body temperature and respiration ([6]; 10 ppb of H2Se (FIG. 27)): reduction in core body temperature and respiration | core body temperature [6, 14]: drop in core body temperature | reduction in metabolic activity as evidenced by respiration [6, 14]: 3 fold | reversibility of effects ([6]; tests used to evaluate reversibility with H2S): fully reversible

[SeH2] [sodium selenide]
effect on body (subcutaneous) temperature [2]: did not reduce subcutaneous temperature

O=C=O [CO2, carbon dioxide]
depression in metabolic rate, Rat ([3]; 15%): Yes 15% (Evidence of depression in metabolic rate of greater than 5-fold as judged by carbon dioxide production or oxygen consumption during a 6-hour treatment is described by “Yes”) | depression in metabolic rate, Mouse ([5]; 15%): Yes 15% (Evidence of depression in metabolic rate of greater than 5-fold as judged by carbon dioxide production or oxygen consumption during a 6-hour treatment is described by “Yes”) | control of metabolic flexibility ([5]; mice, 15% CO2): affords control of metabolic flexibility | tidal volume and respiration rate ([5]; mice, 15% CO2): tidal volume increases but respiration rate remains unchanged | depression in metabolic rate, Dog ([7]; mask, room temperature (22° C.)): No 9% (“No” (reduction or less than a 5-fold reduction in these values is described as such) | core body temperature (CBT) ([7]; dog, 12% and 15% carbon dioxide in room air (FIG. 40)): A similar drop | survival ([8]; 100% CO2 pretreatment 30 minutes, 19 h anoxic exposure, stopped-flow): 54% | survival ([8]; 100% CO2 pretreatment 90 minutes, 19 h anoxic exposure, stopped-flow): 28% | survival ([8]; 10 min CO2 pretreatment, 17, 22, and 24 h of anoxia, low-flow): no survival was observed | survival ([8]; CO2 10 minutes before 20 h anoxic exposure, low-flow (no H2S)): 6% | survival ([8]; CO2 pretreatment and CO2 for 20 minutes immediately following anoxic exposure): no flies survived | survival ([9]; adult flies, CO2 then N2 with bubbler water not equilibrated with N2, 13 h anoxic exposure): no flies survived | movement upon reoxygenation ([9]; larvae, pretreated, 24.5 h anoxia): can resume movement | pupae formed ([9]; pool of 0-19 h old embryos, CO2 10 min pretreatment, anoxia 24 h): 20 pupae

N=C(N)[SeH] [selenourea]
protection from lethal hypoxia [1]: did not enhance survival in hypoxia | effect on body (subcutaneous) temperature [2]: reduced body temperature

OCCS [2-mercapto-ethanol]
toxicity [2]: toxic at the effective temperature reducing dose | effect on body (subcutaneous) temperature [2]: reduced body temperature

OC1CCSCC1 [tetrahydrothiopyran-4-ol]
survival in lethal hypoxia [1]: 15 min

CC(=O)N[C@@H](CS)C(=O)O [N-acetyl-L-cysteine]
effect on body (subcutaneous) temperature [2]: did not reduce subcutaneous temperature

C[S-].[Na+] [sodium thiomethoxide]
survival in lethal hypoxia [1]: 60 min | effective dose (to lower subcutaneous temperature) [2]: 4.61 mmol/kg

O=C(O)CS [thioglycolic acid]
toxicity [2]: toxic at the effective temperature reducing dose | effect on body (subcutaneous) temperature [2]: reduced body temperature

NCCCNCCSP(=O)(O)O [phosphorothioic acid S-(2-((3-aminopropyl)amino)ethyl) ester]
protection from lethal hypoxia [1]: did not enhance survival in hypoxia | effect on body (subcutaneous) temperature [2]: reduced body temperature

CSC [dimethyl sulfide]
effect on body (subcutaneous) temperature [2]: did not reduce subcutaneous temperature

[C-]#[O+] [CO, carbon monoxide]
# cells recovered [10]: 167 | Total colonies [10]: 542 colonies (many of which were very and 780 colonies (many of which were very | dead (tb+), SUM [10]: 61 | fraction alive [10]: 0.91 and 0.50 and 0.77 and 0.83 and 0.54 and 0.80 | fraction alive, SUM [10]: 0.63 | growth of keratinocyte populations [10]: significant growth | live (tb−), SUM [10]: 106 | survival of skin cells relative to room air [10]: 100 fold | survival after exposure to cold [11]: survived with high viability | lethality and suspended animation ([12]; 100% carbon monoxide, 24 hr, room temperature): not lethal and induced reversible suspended animation | survival ([12]; 500 ppm oxygen balanced with carbon monoxide, 24 hr): entered into suspended animation and survived | survival to adulthood ([12]; hif-1(ia04) embryos, 0.25 kPa O2/CO, 24 hrs): 83.9% ± 13.8 | survival to adulthood ([12]; hif-1(ia04) embryos, 0.25 kPa O2/CO, 24 hrs, listed as carbon monoxide): 84.0% | survival to adulthood ([12]; wild-type (N2) embryos, 0.25 kPa O2/CO, 24 hrs): 78.7% ± 21.9 | survival to adulthood ([12]; wild-type (N2) embryos, 0.25 kPa O2/CO, 24 hrs, listed as carbon monoxide): 78.7% | viability to adulthood ([12]; wild-type embryos, 0.05 kPa O2 balanced with carbon monoxide, 24 hrs): 96.2% | survival to adulthood ([12]; wild-type embryos, 101 kPa CO (100% CO), 24 hrs): 81.5% | symptoms ([13]; 50 ppm): no symptoms | symptoms ([13]; 200 ppm, within two-three hours): slight headache | symptoms ([13]; 400 ppm, within one to two hours): frontal headache | symptoms ([13]; 800 ppm, within 45 minutes): dizziness, nausea, and/or convulsions | lethality ([13]; around 1000 ppm, exposure for more than around 1-2 minutes): can expire | survival ([8]; treated only with CO for 10 min before the anoxic exposure (18.5 h)): 11%

CC(O)=S [Thioacetic acid]
protection from lethal hypoxia [1]: did not enhance survival in hypoxia | effect on body (subcutaneous) temperature [2]: reduced body temperature

N#C[S-].[Na+] [sodium thiocyanate]
effective dose (to lower subcutaneous temperature) [2]: 4.67 mmol/kg
